Measurements published in patent publication US20150175655A1 (priority 2012, published 2015).

Biological target: T1, NS3 genotype 1b protease (Hepatitis C virus genotype 1b, UniProt Q9WMX2, E1202G)
T1 construct: Purified NS3 protease domain (amino acids 1-181) of the genotype 1b and 3a virus were generated as above; K3 hexahistidine tag (N); rTEV protease cleavage site (N); made in house; host or cells: E. coli BL21AI, pET28 vector p28-N6H-Tev-NS3(181)1b
Experiment: Ki determination, NS3 protease genotype 1b (fluorogenic depsipeptide substrate)
Format: biochemical
Settings: not given
Source text: The coding sequence of the genotype 1b (con-1 strain) HCV NS3 protease domain was PCR amplified from a plasmid encoding the I389luc-ubi-neo/NS3-3′/ET replicon (Reblikon, Mainz, Germany). The 5′-PCR primer was designed to encode an N-terminal K3 hexahistidine tag and to insert an in-frame recombinant Tobacco Etch virus (rTEV) protease cleavage site into the NS3 coding sequence. The resulting DNA fragment was cloned into the pET28 protein expression vector (Invitrogen, Carlsbad, Calif.) yielding the p28-N6H-Tev-NS3(181)1b.
BL21AI bacteria (Invitrogen, Carlsbad, Calif.) were transformed with genotype 1b or 3 NS3 expression vectors and used to inoculate a 20 L fermentation vessel (Sartorius BBI System Inc., Bethlehem, Pa.), containing 18 L of fresh 2YT medium supplemented with 50 μg/mL kanamycin. When cell densities reached an OD600 of 1, the temperature of the cultures was reduced from 37° C. to 28° C. and induction was immediately initiated by the addition of 30 μM ZnSO4, 14 mM L-arabinose and 1 mM Isopropyl β-D-thiogalactoside (IPTG) final concentrations. Cells were harvested by centrifugation four hours post-induction and were stored as frozen pellets at −80° C. prior to NS3 protein purification.
Cell pellets were thawed and resuspended at 10 mL/g cells in lysis buffer containing 50 mM tris pH 7.6, 300 mM NaCl, 0.1% 3-[(3-cholamidopropyl)dimethylammonio]-1-propanesulfonate (CHAPS), 5% glycerol, and 2 mM β-mercaptoethanol. Cell suspensions were then sonicated, filtered through cheesecloth, and passed three times through a microfluidizer at 18,000 pounds/in^2. The resulting lysates were centrifuged at 15500 rpm for 45 minutes and supernatants were loaded onto a HisTrap HP column (GE Lifesciences) pre-equilibrated with five volumes of Ni buffer A (50 mM tris pH 7.6, 300 mM NaCl, 0.1% CHAPS, 5% glycerol, 2 mM β-mercaptoethanol, 50 mM imidazole-HCl). Proteins were eluted with a 0-100% gradient of Ni buffer A plus 500 mM imidazole-HCl and fractions were collected and pooled. The HisTrap pool was diluted 1:10 with SP-A buffer (50 mM tris pH 7.0, 10% glycerol, 2 mM dithiothreitol (DTT)) and loaded onto a HiTrap SP-HP column (GE Lifesciences) equilibrated with SP-A buffer. NS3 protease was eluted with a 0-100% SP-B buffer (SP-A buffer plus 1 M NaCl) gradient. Concentrated pools of NS3-containing SP fractions were aliquoted, snap frozen in liquid nitrogen and stored at −80° C.
Purified NS3 protease domain (amino acids 1-181) of the genotype 1b and 3a virus were generated as above.
Reactions were run at room temperature in buffer consisting of 50 mM HEPES, 40% glycerol, 0.05% Triton X-100, 10 mM DTT, and 10% DMSO. The final assay solutions contained 50 pM NS3 genotype 1b protease or 200 pM genotype 3a protease, 20 μM NS4A peptide, and 4 μM substrate (genotype 1 b) or 2 μM substrate (genotype 3a). Inhibitor concentrations varied from 100 nM to 5 pM in 3-fold dilutions, and no-inhibitor controls were included.
Compound dilutions were made in DMSO at 20× final concentration. Reaction mixtures were prepared in 96-well assay plates. A solution of enzyme and NS4A peptide in assay buffer (25 μL volume with both reagents at 4× final concentration) was mixed with 45 μL assay buffer and 5 μL of either inhibitor or DMSO, and pre-incubated at room temperature for 1 hour. The reaction was started by addition of 25 μL substrate solution at 4× final concentration. Plates were mixed vigorously for 5-10 seconds and reactions were allowed to proceed for 90 minutes. fluorescence was measured every 30 s between 90 and 120 minutes reaction time using a Tecan InfiniTe M1000 or PerkinElmer Envision multimode plate reader with an excitation wavelength of 340 nm and an emission wavelength of 490 nm.
To determine the K, rates were plotted as a function of inhibitor concentration, and the data were fit with equation 1 (Morrison, J. F., Biochimica et Biophysica Acta 1969, 185, 269-286) to calculate Ki^app using GraphPad Prism 5.

Point of comparison: `CC[C@@H]1[C@@H]2CN(C(=O)[C@H](C(C)(C)C)NC(=O)O[C@@H]3C[C@H]3CCCCCc3nc4ccc(OC)cc4nc3O2)[C@@H]1C(=O)N[C@]1(C(=O)NS(=O)(=O)C2(C)CC2)C[C@H]1C(F)F` [Example 1, (1aR,5S,8S,9S,10R,22aR)-5-tert-butyl-N-[ (1R,2R)-2-(difluoromethyl)-1-{[(1-methylcyclopropyl)sulfonyl]carbamoyl}cyclopropyl]-9-ethyl-14-methoxy-3,6-dioxo-1,1a,3,4,5,6,9,10,18,19,20,21,22,22a-tetradecahydro-8H-7,10-methanocyclopropa[18,19][1,10,3,6]dioxadiazacyclononadecino[11,12-b]quinoxaline-8-carboxamide], Ki 0.03 nM. Against it:
- CC[C@@H]1[C@@H]2CN(C(=O)[C@H](C(C)(C)C)NC(=O)O[C@@H]3C[C@H]3CCCC3CC3c3nc4ccc(OC)cc4nc3O2)[C@@H]1C(=O)N[C@]1(C(=O)NS(=O)(=O)C2(C)CC2)C[C@H]1C(F)F (stereo partly drawn) [Example 36, (1aR,5S,8S,9S,10R,21aR)-5-tert-butyl-N-[(1R,2R)-2-(difluoromethyl)-1-{[(1-methylcyclopropyl)sulfonyl]carbamoyl}cyclopropyl]-9-ethyl-14-methoxy-3,6-dioxo-1a,3,4,5,6,9,10,17b,18,18a,19,20,21,21a-tetradecahydro-1H,8H-7,10-methanodicyclopropa[13,14:18,19][1,10,3,6]dioxadiazacyclononadecino[11,12-b]quinoxaline-8-carboxamide] — 3.3-fold higher, 0.1 nM
- COc1ccc2nc3c(nc2c1)O[C@H]1CN(C(=O)[C@H](C(C)(C)C)NC(=O)O[C@@H]2C[C@H]2CCCCC3(F)F)[C@H](C(=O)N[C@]2(C(=O)NS(=O)(=O)C3(C)CC3)C[C@H]2C(F)F)[C@@H]1C [Example 46, (1aR,5S,8S,9S,10R,22aR)-5-tert-butyl-N-[(1R,2R)-2-(difluoromethyl)-1-{[(1-methylcyclopropyl)sulfonyl]carbamoyl}cyclopropyl]-18,18-difluoro-14-methoxy-9-methyl-3,6-dioxo-1,1a,3,4,5,6,9,10,18,19,20,21,22,22a-tetradecahydro-8H-7,10-methanocyclopropa[18,19][1,10,3,6]dioxadiazacyclononadecino[11,12-b]quinoxaline-8-carboxamide] — the same, 0.03 nM
- COc1ccc2nc3c(nc2c1)O[C@H]1CN(C(=O)[C@H](C(C)(C)C)NC(=O)O[C@]2(C)C[C@H]2CCCCC3(F)F)[C@H](C(=O)N[C@]2(C(=O)NS(=O)(=O)C3(C)CC3)C[C@H]2C(F)F)[C@@H]1C (single isomer, unassigned) [Example 76] — the same, 0.03 nM
- CCOc1ccc2nc3c(nc2c1)O[C@H]1CN(C(=O)[C@H](C(C)(C)C)NC(=O)O[C@@H]2C[C@H]2CCCCC3)[C@H](C(=O)N[C@]2(C(=O)NS(=O)(=O)C3(C)CC3)C[C@H]2C(F)F)[C@@H]1CC [Example 69, (1aR,5S,8S,9S,10R,22aR)-5-tert-butyl-N-[(1R,2R)-2-(difluoromethyl)-1-{[(1-methylcyclopropyl)sulfonyl]carbamoyl}cyclopropyl]-14-ethoxy-9-ethyl-3,6-dioxo-1,1a,3,4,5,6,9,10,18,19,20,21,22,22a-tetradecahydro-8H-7,10-methanocyclopropa[18,19][1,10,3,6]dioxadiazacyclononadecino[11,12-b]quinoxaline-8-carboxamide] — 2.3-fold higher, 0.07 nM
- CC[C@@]12C[C@H]1CCCCCc1nc3ccc(OC)cc3nc1O[C@H]1CN(C(=O)[C@H](C(C)(C)C)NC(=O)O2)[C@H](C(=O)N[C@]2(C(=O)NS(=O)(=O)C3(C)CC3)C[C@H]2C(F)F)[C@@H]1C [Example 43, (1aR,5S,8S,9S,10R,22aR)-5-tert-butyl-N-[(1R,2R)-2-(difluoromethyl)-1-{[(1-methylcyclopropyl)sulfonyl]carbamoyl}cyclopropyl]-1a-ethyl-14-methoxy-9-methyl-3,6-dioxo-1,1a,3,4,5,6,9,10,18,19,20,21,22,22a-tetradecahydro-8H-7,10-methanocyclopropa[18,19][1,10,3,6]dioxadiazacyclononadecino[11,12-b]quinoxaline-8-carboxamide] — 2-fold higher, 0.06 nM
- CC[C@@H]1[C@@H]2CN(C(=O)[C@H](C(C)(C)C)NC(=O)O[C@@H]3C[C@H]3CCCCC(F)(F)c3nc4ccc(OC)cc4nc3O2)[C@@H]1C(=O)N[C@]1(C(=O)NS(=O)(=O)C2(C)CC2)C[C@H]1C(F)F [Example 17, (1aR,5S,8S,9S,10R,22aR)-5-tert-butyl-N-[(1R,2R)-2-(difluoromethyl)-1-{[(1-methylcyclopropyl)sulfonyl]carbamoyl}cyclopropyl]-9-ethyl-18,18-difluoro-14-methoxy-3,6-dioxo-1,1a,3,4,5,6,9,10,18,19,20,21,22,22a-tetradecahydro-8H-7,10-methanocyclopropa[18,19][1,10,3,6]dioxadiazacyclononadecino[11,12-b]quinoxaline-8-carboxamide] — within 1.5-fold, 0.04 nM
- CC[C@@H]1[C@@H]2CN(C(=O)[C@H](C(C)(C)C)NC(=O)O[C@]3(C)CCC[C@H]3CCCCCc3nc4ccc(OC)cc4nc3O2)[C@@H]1C(=O)N[C@]1(C(=O)NS(=O)(=O)C2(C)CC2)C[C@H]1C(F)F [Example 39, (3aR,7S,10S,11S,12R,24aR)-7-tert-butyl-N-[(1R,2R)-2-(difluoromethyl)-1-{[(1-methylcyclopropyl)sulfonyl]carbamoyl}cyclopropyl]-11-ethyl-16-methoxy-3a-methyl-5,8-dioxo-1,2,3,3a,5,6,7,8,11,12,20,21,22,23,24,24a-hexadecahydro-10H-9,12-methanocyclopenta[18,19][1,10,3,6]dioxadiazacyclononadecino[11,12-b]quinoxaline-10-carboxamide] — 2.7-fold higher, 0.08 nM

Same assay, conditions: NS3 protease genotype 1b, 50 pM enzyme, 20 μM NS4A peptide, 4 μM substrate; read-out: Ki 1B

Point of comparison: `CC[C@@H]1[C@@H]2CN(C(=O)[C@H](C(C)(C)C)NC(=O)O[C@]3(C(F)(F)F)CCCC3CCCCCc3nc4ccc(OC)cc4nc3O2)[C@@H]1C(=O)N[C@]1(C(=O)NS(=O)(=O)C2(C)CC2)C[C@H]1C(F)F` (stereo partly drawn) [Example 9, (7S,10S,11S,12R)-7-tert-butyl-N-[(1R,2R)-2-(difluoromethyl)-1-{[(1-methylcyclopropyl)sulfonyl]carbamoyl}cyclopropyl]-11-ethyl-16-methoxy-5,8-dioxo-3aR-(trifluoromethyl)-1,2,3,3a,5,6,7,8,11,12,20,21,22,23,24,24a-hexadecahydro-10H-9,12-methanocyclopenta[18,19][1,10,3,6]dioxadiazacyclononadecino[11,12-b]quinoxaline-10-carboxamide], Ki 0.15 nM. Against it:
- CC[C@@H]1[C@@H]2CN(C(=O)[C@H](C(C)(C)C)NC(=O)O[C@@]3(C(F)(F)F)CCCC3CCCCCc3nc4ccc(OC)cc4nc3O2)[C@@H]1C(=O)N[C@]1(C(=O)NS(=O)(=O)C2(C)CC2)C[C@H]1C(F)F (stereo partly drawn) [Example 10, (7S,10S,11S,12R)-7-tert-butyl-N-[(1R,2R)-2-(difluoromethyl)-1-{[(1-methylcyclopropyl)sulfonyl]carbamoyl}cyclopropyl]-11-ethyl-16-methoxy-5,8-dioxo-3aS-(trifluoromethyl)-1,2,3,3a,5,6,7,8,11,12,20,21,22,23,24,24a-hexadecahydro-10H-9,12-methanocyclopenta[18,19][1,10,3,6]dioxadiazacyclononadecino[11,12-b]quinoxaline-10-carboxamide] — within 1.5-fold, 0.16 nM
